For one data set, the system named is HIV-1. The data set can be described thus: In-vitro anti HIV test, HIV-1, human T lymphocytes CEM/O. It is filed as cell-based, HIV-1 in human T lymphocytes (CEM/O). The note with it: Human immunodeficiency virus 1, T-lymphocyte, read-out: Antiviral activity EC50 CEM/O HIV-1. The protocol:
(§1) In-vitro HIV tests were carried out with the dinucleoside α-hydroxymethylarylphosphonates 1-3. As a test system human T lymphocytes (CEM/O) were used. The compounds were additionally tested in a thymidine kinase-deficient T-lymphocyte strain (CEM/TK^-). The CEM/O cells were infected both with HIV-1 and with HIV-2. Before the tests, it was ensured that the compounds to be tested were free of free nucleoside (max. 0.5% HPLC) .

Data set [1] concerns HIV-2. The data set can be described thus: In-vitro anti HIV test, HIV-2, thymidine kinase-deficient T-lymphocyte strain CEM/TK^-. It is filed as cell-based, HIV-2 in human T lymphocytes (CEM/TK^-). The note with it: Human immunodeficiency virus 2, CEM-TK(-), read-out: Antiviral activity EC50 CEM/TK^- HIV-2. On the procedure:
as §1

A short description of data set [2]: Toxicity (cytotoxic action) in human T lymphocytes. It is filed as cell-based. The conditions noted are these: cem t lymphocytes. On the procedure: as §1
Data set [3] deals with HIV-2. The data set can be described thus: In-vitro anti HIV test, HIV-2, human T lymphocytes CEM/O. It is filed as cell-based, HIV-2 in human T lymphocytes (CEM/O). The note with it: Human immunodeficiency virus 2, T-lymphocyte, read-out: Antiviral activity EC50 CEM/O HIV-2. The protocol: as §1

In brackets after ≈: the same amount, converted by molar mass. Like-named read-outs stand apart in the source and are kept apart here.

As a reminder, the CC50 is the concentration giving 50% cytotoxicity. On to `Cc1cn([C@H]2CC[C@@H](COP(=O)(OC[C@@H]3CC[C@H](n4cc(C)c(=O)[nH]c4=O)O3)C(O)c3ccc(N(C)C)cc3)O2)c(=O)[nH]c1=O` (some centres unmarked) [Compound 1a, bis(5'-O-2',3'-dideoxythymidine) hydroxy(4-dimethylaminophenyl)methylphosphonate], for which the EC50 in the data set with HIV-1 (HIV-1, CEM/O cells) is 3.25 ± 1.06 µg/mL (≈ 5.02 µM); in the data set on HIV-2 [1] it was > 100 µg/mL; in the data set with HIV-2 [3] (HIV-2, CEM/O cells), 7 ± 4.24 µg/mL (≈ 10.8 µM). The CC50 in data set [2] (read-out: Toxicity CC50) was > 100 µg/mL.
For the molecule `COc1ccc(C(O)P(=O)(OC[C@@H]2CC[C@H](n3cc(C)c(=O)[nH]c3=O)O2)OC[C@@H]2CC[C@H](n3cc(C)c(=O)[nH]c3=O)O2)cc1` (some centres unmarked) [Compound 1b, bis(5'-O-2',3'-dideoxythymidine) hydroxy(4-methoxyphenyl)methylphosphonate], the EC50 is 0.5 µg/mL (≈ 0.788 µM) in the data set on HIV-1 (HIV-1, CEM/O cells); > 20 µg/mL in the data set on HIV-2 [1]; 0.55 ± 0.07 µg/mL (≈ 0.867 µM) in the data set with HIV-2 [3] (HIV-2, CEM/O cells). Also, the CC50 in data set [2] (read-out: Toxicity CC50) is > 20 µg/mL.
As for `Cc1ccc(C(O)P(=O)(OC[C@@H]2CC[C@H](n3cc(C)c(=O)[nH]c3=O)O2)OC[C@@H]2CC[C@H](n3cc(C)c(=O)[nH]c3=O)O2)cc1` (some centres unmarked) [Compound 1c, bis(5'-O-2',3'-dideoxythymidine) hydroxy(4-methylphenyl)methylphosphonate], the EC50 was 3.25 ± 1.06 µg/mL (≈ 5.25 µM) in the data set on HIV-1 (HIV-1, CEM/O cells); > 100 µg/mL in the data set with HIV-2 [1]; 10 µg/mL (≈ 16.2 µM) in the data set with HIV-2 [3] (HIV-2, CEM/O cells). Further, the CC50 in data set [2] (read-out: Toxicity CC50) is > 100 µg/mL.
`Cc1cn([C@H]2CC[C@@H](COP(=O)(OC[C@@H]3CC[C@H](n4cc(C)c(=O)[nH]c4=O)O3)C(O)c3ccccc3)O2)c(=O)[nH]c1=O` (some centres unmarked) [Compound 1d, bis(5'-O-2',3'-dideoxythymidine) hydroxy(phenyl)methylphosphonate]: the EC50 in the data set with HIV-1 (HIV-1, CEM/O cells) was 2.93 ± 1.85 µg/mL (≈ 4.85 µM); with HIV-2 [1], > 100 µg/mL; with HIV-2 [3] (HIV-2, CEM/O cells), 13.3 ± 2.9 µg/mL (≈ 22 µM). In data set [2] (read-out: Toxicity CC50), the CC50 is > 100 µg/mL.
As for `Cc1cn([C@H]2CC[C@@H](COP(=O)(OC[C@@H]3CC[C@H](n4cc(C)c(=O)[nH]c4=O)O3)C(O)c3ccc(Cl)cc3)O2)c(=O)[nH]c1=O` (some centres unmarked) [Compound 1e, bis(5'-O-2',3'-dideoxythymidine) hydroxy(4-chlorophenyl)methylphosphonate], the EC50 in the data set on HIV-1 (HIV-1, CEM/O cells) was 4 µg/mL (≈ 6.26 µM); in the data set with HIV-2 [1], > 100 µg/mL; in the data set with HIV-2 [3] (HIV-2, CEM/O cells) it was 4 µg/mL (≈ 6.26 µM). Also, in data set [2] (read-out: Toxicity CC50), the CC50 is > 100 µg/mL.
On to `Cc1cn([C@H]2CC[C@@H](COP(=O)(OC[C@@H]3CC[C@H](n4cc(C)c(=O)[nH]c4=O)O3)C(O)c3c(Cl)cccc3Cl)O2)c(=O)[nH]c1=O` (some centres unmarked) [Compound 1f, bis(5'-O-2',3'-dideoxythymidine) hydroxy(2,6-dichlorophenyl)methylphosphonate], for which the EC50 in the data set with HIV-1 was 1.4 ± 0.85 µg/mL (≈ 2.08 µM); in the data set with HIV-2 [1], > 20 µg/mL; in the data set with HIV-2 [3], 2 µg/mL (≈ 2.97 µM). Moreover, the CC50 in data set [2] (read-out: Toxicity CC50) was > 20 µg/mL.
Turning to `Cc1cn([C@H]2CC[C@@H](COP(=O)(OC[C@@H]3CC[C@H](n4cc(C)c(=O)[nH]c4=O)O3)C(O)c3ccc(C#N)cc3)O2)c(=O)[nH]c1=O` (some centres unmarked) [Compound 1g, bis(5'-O-2',3'-dideoxythymidine) hydroxy(4-cyanophenyl)methylphosphonate], the EC50 was 3.93 ± 3.1 µg/mL (≈ 6.24 µM) in the data set on HIV-1 (HIV-1, CEM/O cells); > 100 µg/mL in the data set with HIV-2 [1]; 7.7 ± 4.6 µg/mL (≈ 12.2 µM) in the data set with HIV-2 [3] (HIV-2, CEM/O cells). The CC50 in data set [2] (read-out: Toxicity CC50) was > 100 µg/mL.
Consider `Cc1cn([C@H]2CC[C@@H](COP(=O)(OC[C@@H]3CC[C@H](n4cc(C)c(=O)[nH]c4=O)O3)C(O)c3ccc([N+](=O)[O-])cc3)O2)c(=O)[nH]c1=O` (some centres unmarked) [Compound 1h, bis(5'-O-2',3'-dideoxythymidine) hydroxy(4-nitrophenyl)methylphosphonate], for which the EC50 with HIV-1 (HIV-1, CEM/O cells) is 2.25 ± 0.35 µg/mL (≈ 3.46 µM); with HIV-2 [1], > 100 µg/mL; in the data set on HIV-2 [3] (HIV-2, CEM/O cells), 3 ± 1.41 µg/mL (≈ 4.62 µM). Moreover, the CC50 in data set [2] (read-out: Toxicity CC50) is > 100 µg/mL.
As to `Cc1cn([C@H]2CC[C@@H](COP(=O)(OC[C@@H]3CC[C@H](n4cc(C)c(=O)[nH]c4=O)O3)C(O)c3ccc([N+](=O)[O-])cc3[N+](=O)[O-])O2)c(=O)[nH]c1=O` (some centres unmarked) [Compound 1j, bis(5'-O-2',3'-dideoxythymidine) hydroxy(2,4-dinitrophenyl)methylphosphonate], the EC50 with HIV-1 (HIV-1, CEM/O cells) is 2 µg/mL (≈ 2.88 µM); in the data set on HIV-2 [1], > 100 µg/mL; in the data set on HIV-2 [3] (HIV-2, CEM/O cells), 3.5 ± 0.71 µg/mL (≈ 5.04 µM). For the same molecule, the CC50 in data set [2] was > 100 µg/mL.
`COc1ccc(C(O)P(=O)(OC[C@@H]2C=C[C@H](n3cc(C)c(=O)[nH]c3=O)O2)OC[C@@H]2C=C[C@H](n3cc(C)c(=O)[nH]c3=O)O2)cc1` (some centres unmarked) [Compound 2b, bis(5'-O-2',3'-dideoxy-2',3'-didehydrothymidine)hydroxy(4-methoxyphenyl)methylphosphonate]: the EC50 with HIV-1 (HIV-1, CEM/O cells) was 0.1 ± 0.065 µg/mL (≈ 0.159 µM); in the data set on HIV-2 [1], > 100 µg/mL; in the data set with HIV-2 [3] (HIV-2, CEM/O cells), 0.12 ± 0.06 µg/mL (≈ 0.19 µM). The CC50 in data set [2] (read-out: Toxicity CC50) was > 20 µg/mL.
As to `Cc1ccc(C(O)P(=O)(OC[C@@H]2C=C[C@H](n3cc(C)c(=O)[nH]c3=O)O2)OC[C@@H]2C=C[C@H](n3cc(C)c(=O)[nH]c3=O)O2)cc1` (some centres unmarked) [Compound 2c, bis(5'-O-2',3'-dideoxy-2',3'-didehydrothymidine)hydroxy(4-methylphenyl)methylphosphonate], the EC50 in the data set on HIV-1 (HIV-1, CEM/O cells) was 0.12 ± 0.064 µg/mL (≈ 0.195 µM); in the data set on HIV-2 [1] it was > 100 µg/mL; in the data set on HIV-2 [3] (HIV-2, CEM/O cells), 0.33 ± 0.24 µg/mL (≈ 0.537 µM). Besides, in data set [2] (read-out: Toxicity CC50), the CC50 is > 20 µg/mL.
Take `Cc1cn([C@H]2C=C[C@@H](COP(=O)(OC[C@@H]3C=C[C@H](n4cc(C)c(=O)[nH]c4=O)O3)C(O)c3ccccc3)O2)c(=O)[nH]c1=O` (some centres unmarked) [Compound 2d, bis(5'-O-2',3'-dideoxy-2',3'-didehydrothymidine)hydroxy(phenyl)methylphosphonate]: the EC50 with HIV-1 (HIV-1, CEM/O cells) is 0.16 µg/mL (≈ 0.266 µM); in the data set with HIV-2 [1] it was > 100 µg/mL; in the data set on HIV-2 [3] (HIV-2, CEM/O cells) it was 0.19 ± 0.19 µg/mL (≈ 0.316 µM). In data set [2] (read-out: Toxicity CC50), the CC50 is > 100 µg/mL.
Turning to `Cc1cn([C@H]2C=C[C@@H](COP(=O)(OC[C@@H]3C=C[C@H](n4cc(C)c(=O)[nH]c4=O)O3)C(O)c3ccc(Cl)cc3)O2)c(=O)[nH]c1=O` (some centres unmarked) [Compound 2e, bis(5'-O-2',3'-dideoxy-2',3'-didehydrothymidine)hydroxy(4-chlorophenyl)methylphosphonate], the EC50 in the data set on HIV-1 (HIV-1, CEM/O cells) is 0.1 ± 0.05 µg/mL (≈ 0.157 µM); in the data set with HIV-2 [1], > 100 µg/mL; in the data set on HIV-2 [3] (HIV-2, CEM/O cells), 0.12 ± 0.06 µg/mL (≈ 0.189 µM). The CC50 in data set [2] (read-out: Toxicity CC50) was > 100 µg/mL.
On to `Cc1cn([C@H]2C=C[C@@H](COP(=O)(OC[C@@H]3C=C[C@H](n4cc(C)c(=O)[nH]c4=O)O3)C(O)c3c(Cl)cccc3Cl)O2)c(=O)[nH]c1=O` (some centres unmarked) [Compound 2f, bis(5'-O-2',3'-dideoxy-2',3'-didehydrothymidine)hydroxy(2,6-dichlorophenyl)methylphosphonate], for which the EC50 with HIV-1 (HIV-1, CEM/O cells) was 0.056 ± 0.034 µg/mL (≈ 0.0837 µM); with HIV-2 [1] it was > 20 µg/mL; in the data set on HIV-2 [3] (HIV-2, CEM/O cells), 0.12 ± 0.06 µg/mL (≈ 0.179 µM). In addition, the CC50 in data set [2] (read-out: Toxicity CC50) is > 100 µg/mL.
With `Cc1cn([C@H]2C=C[C@@H](COP(=O)(OC[C@@H]3C=C[C@H](n4cc(C)c(=O)[nH]c4=O)O3)C(O)c3ccc(C#N)cc3)O2)c(=O)[nH]c1=O` (some centres unmarked) [Compound 2g, bis(5'-O-2',3'-dideoxy-2',3'-didehydrothymidine)hydroxy(4-cyanophenyl)methylphosphonate], the EC50 in the data set on HIV-1 (HIV-1, CEM/O cells) is 0.091 ± 0.065 µg/mL (≈ 0.145 µM); in the data set with HIV-2 [1], > 100 µg/mL; with HIV-2 [3] (HIV-2, CEM/O cells), 0.33 ± 0.24 µg/mL (≈ 0.528 µM). Further, in data set [2] (read-out: Toxicity CC50), the CC50 was > 100 µg/mL.
Turning to `Cc1cn([C@H]2C=C[C@@H](COP(=O)(OC[C@@H]3C=C[C@H](n4cc(C)c(=O)[nH]c4=O)O3)C(O)c3ccc([N+](=O)[O-])cc3)O2)c(=O)[nH]c1=O` (some centres unmarked) [Compound 2h, bis(5'-O-2',3'-dideoxy-2',3'-didehydrothymidine)hydroxy(4-nitrophenyl)methylphosphonate], the EC50 in the data set on HIV-1 (HIV-1, CEM/O cells) is 0.066 ± 0.048 µg/mL (≈ 0.102 µM); with HIV-2 [1] it was > 100 µg/mL; with HIV-2 [3] (HIV-2, CEM/O cells), 0.12 ± 0.06 µg/mL (≈ 0.186 µM). For the same molecule, in data set [2] (read-out: Toxicity CC50), the CC50 was > 100 µg/mL.
Take `Cc1cn([C@H]2C=C[C@@H](COP(=O)(OC[C@@H]3C=C[C@H](n4cc(C)c(=O)[nH]c4=O)O3)C(O)c3ccc([N+](=O)[O-])cc3[N+](=O)[O-])O2)c(=O)[nH]c1=O` (some centres unmarked) [Compound 2j, bis(5'-O-2',3'-dideoxy-2',3'-didehydrothymidine)hydroxy(2,4-dinitrophenyl)methylphosphonate]: the EC50 is 0.16 µg/mL (≈ 0.232 µM) with HIV-1 (HIV-1, CEM/O cells); > 100 µg/mL in the data set with HIV-2 [1]; 0.33 ± 0.24 µg/mL (≈ 0.478 µM) in the data set with HIV-2 [3] (HIV-2, CEM/O cells). Besides, the CC50 in data set [2] is > 100 µg/mL.

The values are drawn from patent US6028182A, “Methylphosphonic acid esters, processes for their preparation, and their use” (Hoechst Aktiengesellschaft, priority 1993, dated 2000).
